Values after ≈ are worked out from the molar mass of the structure shown.
Tests used:
Escherichia coli [1] = assay: Antibacterial activity against Escherichia coli expressing CTX-M by broth microdilution method; type: functional
Klebsiella pneumoniae [2] = assay: Antibacterial activity against Klebsiella pneumoniae expressing defined beta-lactamase by broth microdilution method; type: functional
Klebsiella pneumoniae [3] = assay: Antibacterial activity against Klebsiella pneumoniae expressing KPC by broth microdilution method; type: functional
Acinetobacter sp. = assay: Antibacterial activity against Acinetobacter spp. by broth microdilution method; type: functional
Pseudomonas aeruginosa [4] = assay: microbe, parasite or virus in culture; conditions: 1091-05
Description: Antibacterial activity against Pseudomonas aeruginosa 1091-05 by broth microdilution method

Klebsiella pneumoniae [5] = assay: Antibacterial activity against Klebsiella pneumoniae expressing ESBL by broth microdilution method; type: functional
Pseudomonas aeruginosa [6] = assay: Antibacterial activity against Pseudomonas aeruginosa expressing metallo-beta-lactamase by broth microdilution method; type: functional
Escherichia coli [7] = assay: Antibacterial activity against Escherichia coli expressing defined beta-lactamase by broth microdilution method; type: functional
Escherichia coli [8] = assay: Antibacterial activity against Escherichia coli expressing ESBL by broth microdilution method; type: functional
Acinetobacter baumannii = assay: Antibacterial activity against Acinetobacter baumannii AB-3167 by broth microdilution method; type: functional
Klebsiella pneumoniae [9] = assay: Antibacterial activity against Klebsiella pneumoniae 1487-07 by broth microdilution method; type: functional
Pseudomonas aeruginosa [10] = assay: Antibacterial activity against Pseudomonas aeruginosa from cystic fibrosis patients by broth microdilution method; type: functional
Klebsiella pneumoniae [11] = assay: Antibacterial activity against Klebsiella pneumoniae 1000-02 by broth microdilution method; type: functional
Pseudomonas aeruginosa [12] = assay: Antibacterial activity against Pseudomonas aeruginosa 1042-06 by broth microdilution method; type: functional

Structure (SMILES)	MIC (Pseudomonas aeruginosa [4]) [µg/mL]	MIC (Acinetobacter baumannii) [µg/mL]	MIC (Klebsiella pneumoniae [9]) [µg/mL]	MIC (Klebsiella pneumoniae [11]) [µg/mL]	MIC (Pseudomonas aeruginosa [12]) [µg/mL]	also measured
CO/N=C(\C(=O)N[C@@H]1C(=O)N2C(C(=O)[O-])=C(C[N+]3(C)CCCC3)CS[C@H]12)c1csc(N)n1	2 (≈ 4.16 µM)	2 (≈ 4.16 µM)	> 64	–	–	MIC50 (Escherichia coli [1]): 64 µg/mL (≈ 133 µM); MIC90 (Escherichia coli [1]): > 64 µg/mL; MIC50 (Klebsiella pneumoniae [2]): 4 µg/mL (≈ 8.32 µM); MIC90 (Klebsiella pneumoniae [2]): > 64 µg/mL; MIC50 (Klebsiella pneumoniae [3]): > 64 µg/mL; MIC90 (Klebsiella pneumoniae [3]): > 64 µg/mL; MIC50 (Acinetobacter sp.): 8 µg/mL (≈ 16.6 µM); MIC90 (Acinetobacter sp.): > 64 µg/mL; MIC50 (Klebsiella pneumoniae [5]): 8 µg/mL (≈ 16.6 µM); MIC90 (Klebsiella pneumoniae [5]): > 64 µg/mL; MIC50 (Pseudomonas aeruginosa [6]): > 64 µg/mL; MIC90 (Pseudomonas aeruginosa [6]): > 64 µg/mL; MIC50 (Escherichia coli [7]): 0.25 µg/mL (≈ 0.52 µM); MIC90 (Escherichia coli [7]): 4 µg/mL (≈ 8.32 µM); MIC50 (Escherichia coli [8]): 64 µg/mL (≈ 133 µM); MIC90 (Escherichia coli [8]): > 64 µg/mL; MIC50 (Pseudomonas aeruginosa [10]): 8 µg/mL (≈ 16.6 µM); MIC90 (Pseudomonas aeruginosa [10]): > 64 µg/mL
CC(C)(O/N=C(\C(=O)N[C@@H]1C(=O)N(S(=O)(=O)O)[C@@H]1CNC(=O)c1cccc(O)c1O)c1csc(N)n1)C(=O)O	16 (≈ 27.3 µM)	16 (≈ 27.3 µM)	64 (≈ 109 µM)	64 (≈ 109 µM)	32 (≈ 54.6 µM)	–
CC(C)(O/N=C(\C(=O)N[C@@H]1C(=O)N(S(=O)(=O)O)[C@@H]1CNC(=O)c1[nH]ccc(=O)c1O)c1csc(N)n1)C(=O)O	32 (≈ 54.5 µM)	32 (≈ 54.5 µM)	64 (≈ 109 µM)	32 (≈ 54.5 µM)	> 64	–
NCCO/N=C(\C(=O)N[C@@H]1C(=O)N(S(=O)(=O)O)[C@@H]1CNC(=O)NCc1cc(=O)c(O)cn1O)c1csc(N)n1	4 (≈ 6.78 µM)	4 (≈ 6.78 µM)	> 64	> 64	> 64	–
CC(C)(O/N=C(\C(=O)N[C@@H]1C(=O)N(S(=O)(=O)O)[C@@H]1CNC(=O)c1cc(=O)c(O)c[nH]1)c1csc(N)n1)C(=O)O	0.125 (≈ 0.213 µM)	0.125 (≈ 0.213 µM)	–	0.5 (≈ 0.851 µM)	0.5 (≈ 0.851 µM)	–
COn1cc(O)c(=O)cc1C(=O)NC[C@@H]1[C@H](NC(=O)/C(=N\OC(C)(C)C(=O)O)c2csc(N)n2)C(=O)N1S(=O)(=O)O	1 (≈ 1.62 µM)	1 (≈ 1.62 µM)	8 (≈ 13 µM)	1 (≈ 1.62 µM)	4 (≈ 6.48 µM)	–
Cn1cc(O)c(=O)cc1C(=O)NC[C@@H]1[C@H](NC(=O)/C(=N\OC(C)(C)C(=O)O)c2csc(N)n2)C(=O)N1S(=O)(=O)O	4 (≈ 6.65 µM)	4 (≈ 6.65 µM)	4 (≈ 6.65 µM)	–	4 (≈ 6.65 µM)	–
CC(C)(O/N=C(\C(=O)N[C@@H]1C(=O)N(S(=O)(=O)O)[C@@H]1CNC(=O)c1cc(=O)c(O)cn1CC(=O)O)c1csc(N)n1)C(=O)O	1 (≈ 1.55 µM)	1 (≈ 1.55 µM)	4 (≈ 6.2 µM)	0.25 (≈ 0.387 µM)	2 (≈ 3.1 µM)	–
CNn1cc(O)c(=O)cc1C(=O)NC[C@@H]1[C@H](NC(=O)/C(=N\OC(C)(C)C(=O)O)c2csc(N)n2)C(=O)N1S(=O)(=O)O	2 (≈ 3.24 µM)	2 (≈ 3.24 µM)	8 (≈ 13 µM)	0.5 (≈ 0.811 µM)	8 (≈ 13 µM)	–
CC(C)(O/N=C(\C(=O)N[C@@H]1C(=O)N(S(=O)(=O)O)[C@@H]1CNC(=O)c1cc(=O)c(O)co1)c1csc(N)n1)C(=O)O	8 (≈ 13.6 µM)	8 (≈ 13.6 µM)	64 (≈ 109 µM)	32 (≈ 54.4 µM)	64 (≈ 109 µM)	–
Nc1nc(/C(=N/OC2(C(=O)O)CCCC2)C(=O)N[C@@H]2C(=O)N(S(=O)(=O)O)[C@@H]2CNC(=O)NCc2cc(=O)c(O)cn2O)cs1	0.25 (≈ 0.38 µM)	0.125 (≈ 0.19 µM)	0.5 (≈ 0.759 µM)	0.25 (≈ 0.38 µM)	1 (≈ 1.52 µM)	–
Nc1nc(/C(=N/OC2(C(=O)O)CCCCC2)C(=O)N[C@@H]2C(=O)N(S(=O)(=O)O)[C@@H]2CNC(=O)NCc2cc(=O)c(O)cn2O)cs1	1 (≈ 1.49 µM)	–	4 (≈ 5.95 µM)	–	8 (≈ 11.9 µM)	–
Nc1nc(/C(=N/OCCCC(=O)O)C(=O)N[C@@H]2C(=O)N(S(=O)(=O)O)[C@@H]2CNC(=O)NCc2cc(=O)c(O)cn2O)cs1	0.5 (≈ 0.79 µM)	0.5 (≈ 0.79 µM)	> 64	32 (≈ 50.6 µM)	8 (≈ 12.6 µM)	–
Nc1nc(/C(=N/OCc2nnn[nH]2)C(=O)N[C@@H]2C(=O)N(S(=O)(=O)O)[C@@H]2CNC(=O)NCc2cc(=O)c(O)cn2O)cs1	0.5 (≈ 0.795 µM)	0.5 (≈ 0.795 µM)	32 (≈ 50.9 µM)	8 (≈ 12.7 µM)	16 (≈ 25.5 µM)	–
Nc1nc(/C(=N/Oc2ccccc2)C(=O)N[C@@H]2C(=O)N(S(=O)(=O)O)[C@@H]2CNC(=O)NCc2cc(=O)c(O)cn2O)cs1	0.5 (≈ 0.803 µM)	0.5 (≈ 0.803 µM)	> 64	> 64	16 (≈ 25.7 µM)	–
Nc1nc(/C(=N/OC2CCCC2)C(=O)N[C@@H]2C(=O)N(S(=O)(=O)O)[C@@H]2CNC(=O)NCc2cc(=O)c(O)cn2O)cs1	1 (≈ 1.63 µM)	1 (≈ 1.63 µM)	32 (≈ 52.1 µM)	8 (≈ 13 µM)	16 (≈ 26 µM)	–
Nc1nc(/C(=N/OCc2cscn2)C(=O)N[C@@H]2C(=O)N(S(=O)(=O)O)[C@@H]2CNC(=O)NCc2cc(=O)c(O)cn2O)cs1	1 (≈ 1.55 µM)	1 (≈ 1.55 µM)	16 (≈ 24.9 µM)	16 (≈ 24.9 µM)	> 64	–
Nc1nc(/C(=N/OCCO)C(=O)N[C@@H]2C(=O)N(S(=O)(=O)O)[C@@H]2CNC(=O)NCc2cc(=O)c(O)cn2O)cs1	0.5 (≈ 0.847 µM)	0.5 (≈ 0.847 µM)	32 (≈ 54.2 µM)	32 (≈ 54.2 µM)	16 (≈ 27.1 µM)	–
CC(C)(O/N=C(\C(=O)N[C@@H]1C(=O)N(S(=O)(=O)O)[C@@H]1CNS(=O)(=O)NCc1cc(=O)c(O)cn1O)c1csc(N)n1)C(=O)O	1 (≈ 1.5 µM)	1 (≈ 1.5 µM)	32 (≈ 47.9 µM)	–	16 (≈ 23.9 µM)	–
CC(C)(O/N=C(\C(=O)N[C@@H]1C(=O)N(S(=O)(=O)O)[C@@H]1Cn1cc(-c2cc(=O)c(O)cn2O)nn1)c1csc(N)n1)C(=O)O	0.125 (≈ 0.199 µM)	0.125 (≈ 0.199 µM)	–	–	–	–
CC(C)(O/N=C(\C(=O)N[C@@H]1C(=O)N(S(=O)(=O)O)[C@@H]1CNc1cc(C(=O)NCc2cc(=O)c(O)cn2O)ccn1)c1csc(N)n1)C(=O)O	–	0.125 (≈ 0.176 µM)	16 (≈ 22.5 µM)	–	1 (≈ 1.41 µM)	–
Nc1nc(/C(=N/OCC(=O)O)C(=O)N[C@@H]2C(=O)N(S(=O)(=O)O)[C@@H]2CNC(=O)NCc2cc(=O)c(O)cn2O)cs1	0.125 (≈ 0.207 µM)	–	8 (≈ 13.2 µM)	–	4 (≈ 6.62 µM)	–
CC(C)C[C@H](O/N=C(\C(=O)N[C@@H]1C(=O)N(S(=O)(=O)O)[C@@H]1CNC(=O)NCc1cc(=O)c(O)cn1O)c1csc(N)n1)C(=O)O	1 (≈ 1.51 µM)	1 (≈ 1.51 µM)	1 (≈ 1.51 µM)	–	16 (≈ 24.2 µM)	–
Nc1nc(/C(=N/O[C@@H](Cc2ccccc2)C(=O)O)C(=O)N[C@@H]2C(=O)N(S(=O)(=O)O)[C@@H]2CNC(=O)NCc2cc(=O)c(O)cn2O)cs1	1 (≈ 1.44 µM)	–	1 (≈ 1.44 µM)	–	8 (≈ 11.5 µM)	–
O=C(O)c1cn(C2CC2)c2cc(N3CCNCC3)c(F)cc2c1=O [CIPROFLOXACIN]	–	0.06 (≈ 0.181 µM)	–	–	64 (≈ 193 µM)	MIC90 (Escherichia coli [1]): > 64 µg/mL; MIC50 (Klebsiella pneumoniae [2]): 0.5 µg/mL (≈ 1.51 µM); MIC50 (Acinetobacter sp.): 0.5 µg/mL (≈ 1.51 µM); MIC90 (Acinetobacter sp.): > 64 µg/mL; MIC50 (Klebsiella pneumoniae [5]): 0.25 µg/mL (≈ 0.754 µM); MIC50 (Pseudomonas aeruginosa [6]): 32 µg/mL (≈ 96.6 µM); MIC90 (Pseudomonas aeruginosa [6]): > 64 µg/mL; MIC50 (Escherichia coli [7]): 0.03 µg/mL (≈ 0.0905 µM); MIC90 (Escherichia coli [7]): 0.06 µg/mL (≈ 0.181 µM); MIC50 (Escherichia coli [8]): > 64 µg/mL; MIC90 (Escherichia coli [8]): > 64 µg/mL; MIC50 (Pseudomonas aeruginosa [10]): 2 µg/mL (≈ 6.04 µM); MIC90 (Pseudomonas aeruginosa [10]): 16 µg/mL (≈ 48.3 µM)
C[C@@H](O)[C@H]1C(=O)N2C(C(=O)O)=C(S[C@@H]3CN[C@H](C(=O)N(C)C)C3)[C@H](C)[C@H]12 [MEROPENEM]	2 (≈ 5.22 µM)	0.25 (≈ 0.652 µM)	–	0.25 (≈ 0.652 µM)	–	MIC50 (Escherichia coli [1]): 0.03 µg/mL (≈ 0.0782 µM); MIC90 (Escherichia coli [1]): 0.06 µg/mL (≈ 0.156 µM); MIC50 (Klebsiella pneumoniae [2]): 0.03 µg/mL (≈ 0.0782 µM); MIC90 (Klebsiella pneumoniae [2]): 0.25 µg/mL (≈ 0.652 µM); MIC50 (Klebsiella pneumoniae [3]): 32 µg/mL (≈ 83.4 µM); MIC90 (Klebsiella pneumoniae [3]): > 64 µg/mL; MIC50 (Acinetobacter sp.): 1 µg/mL (≈ 2.61 µM); MIC90 (Acinetobacter sp.): 32 µg/mL (≈ 83.4 µM); MIC50 (Klebsiella pneumoniae [5]): 0.03 µg/mL (≈ 0.0782 µM); MIC90 (Klebsiella pneumoniae [5]): 0.25 µg/mL (≈ 0.652 µM); MIC50 (Escherichia coli [7]): 0.03 µg/mL (≈ 0.0782 µM); MIC90 (Escherichia coli [7]): 0.06 µg/mL (≈ 0.156 µM); MIC50 (Escherichia coli [8]): 0.03 µg/mL (≈ 0.0782 µM); MIC90 (Escherichia coli [8]): 0.06 µg/mL (≈ 0.156 µM); MIC50 (Pseudomonas aeruginosa [10]): 1 µg/mL (≈ 2.61 µM); MIC90 (Pseudomonas aeruginosa [10]): 16 µg/mL (≈ 41.7 µM)

Source: ChEMBL document CHEMBL2407067, “Pyridone-conjugated monobactam antibiotics with gram-negative activity” (J Med Chem, 2013)
